From patent publication US10679730B2, “Prognostic and predictive breast cancer signature” (The University of Chicago, priority 2013, dated 2020)

Key:
Type in all cases: cell-based, human
[1] = system: TET1 mRNA in 1833 cells; assay: qRT-PCR for TET1 mRNA after demethylation treatment of 1833 cells; conditions: 1833 cells treated with 5-azacytidine, GAPDH normalization (FIG. 18D)
Method: (§1) Total RNA was isolated from cells by using miRNeasy Mini Kit (Qiagen) following the manufacturer's instructions. Quantitative RT-PCR (qRT-PCR) was performed as described (4). The qPCR primers for human or murine HMGA2, TET1, HOXA genes and GAPDH were Taqman and were purchased from Applied Biosystems. Cells were subjected to 5-azacytidine (1 or 3.6 μM), decitabine (5-aza-dC; 220 or 440 nM), or mock treatment by addition into cell culture at indicated concentration. Cells were treated daily. RNA and protein were isolated respectively.

[2] = system: HOXA7 mRNA in 1833 cells; assay: qRT-PCR for HOXA7 mRNA after demethylation treatment of 1833 cells; conditions: 1833 cells treated with 5-azacytidine, GAPDH normalization (FIG. 20F)
Method: as §1

[3] = system: HOXA9 in 1833 cells; assay: qRT-PCR / immunoblotting for HOXA9 after demethylation treatment of 1833 cells; conditions: 1833 cells treated with demethylation reagent; qRT-PCR / immunoblotting (FIG. 20G, 27A, 27C)
Method: Total RNA was isolated from cells by using miRNeasy Mini Kit (Qiagen) following the manufacturer's instructions. Quantitative RT-PCR (qRT-PCR) was performed as described (4). The qPCR primers for human or murine HMGA2, TET1, HOXA genes and GAPDH were Taqman and were purchased from Applied Biosystems.
Cells were lysed in complete lysis buffer (pH 7.5) by using Nuclear Extract Kit (Active Motif) following the manufacturer's protocols. Proteins were measured, separated, and probed as described (4). Antibodies specific for each protein were HMGA2 (61042; Active Motif), TET1 (sc-163446; Santa Cruz Biotechnologies), HOXA7 (09-086; Millipore), HOXA9 (09-178; Millipore), GAPDH (ab9484; Abcam), and Flag-M1 (F3040; Sigma).
(§2) Cells were subjected to 5-azacytidine (1 or 3.6 μM), decitabine (5-aza-dC; 220 or 440 nM), or mock treatment by addition into cell culture at indicated concentration. Cells were treated daily. RNA and protein were isolated respectively.

[4] = system: 1833 cells; assay: In vitro cell invasion assay (Matrigel); conditions: 1833 cells treated with demethylation reagent (FIG. 21D, 27B)
Method: as §2
Cell proliferation assays were performed by using the CellTiter-Blues assay (Promega) as described (4). Invasion assays were performed as described (4) with modifications. Briefly, the inserts were coated with Matrigel basement membrane matrix (BD Biosciences). To assess the cell invasion ability, […] cells were seeded on top of the polymerized Matrigel in serum-free medium, and complete medium (10% FBS) was placed in the lower compartment. After 24 h, cells on the lower part of the insert were stained with BD Calcein AM Fluorescent Dye. The inserts with the invaded cells were incubated in dissociation buffer (Travigen) with gentle shaking. Fluorescence measurements were used to record data with 485 nm for excitation and 530 nm for emission.

Nc1ncn([C@@H]2O[C@H](CO)[C@@H](O)[C@H]2O)c(=O)n1 [5-azacytidine] was tested, and the TET1 expression [1] was “increase in TET1 expression”, the HOXA7 expression [2] was “dramatic increase” and the HOXA9 expression [3] was “dramatic increase”. For the same compound, the cell invasion [4] was “decreased cell invasion”.
